Results published in ChEMBL document CHEMBL1154198, “Chemical genetics of Plasmodium falciparum” (Nature, 2010).

What was measured:
Plasmodium falciparum [1] = test: ST_JUDE: Plasmodium falciparum 3D7 EC50 (uM) as measured by SYBR green dye; assay type: functional, organism-based
Plasmodium falciparum [2] = test: ST_JUDE: Plasmodium falciparum K1 EC50 (uM) as measured by SYBR green dye; assay type: functional, organism-based

Row | Compound | EC50 (Plasmodium falciparum [1]) [µM] | EC50 (Plasmodium falciparum [2]) [µM]
1 | CC(=O)NC1=C(Cl)C(=O)c2ccccc2C1=O | 4.04 | 2.21
2 | O=C(Nc1cccc(Cl)c1)c1cc2ccccc2cc1O | > 15 | 0.568
3 | Cc1cccnc1Nc1nc(-c2ccccn2)cs1 | 1.84 | 1.32
4 | O=C(c1ccc(Cl)cc1Cl)N1CCCC(C(F)(F)F)C1 (stereo not drawn) | 1.46 | > 15
5 | CCC(=O)NC(c1ccco1)c1cc(Cl)c2cccnc2c1O (stereo not drawn) | > 15 | 2.69
6 | CN(C)c1ccc(C2N(C)c3ccccc3N2C)cc1 | 4.27 | 4.44
7 | CCOC(=O)c1ccc(NC2=C(N3CCCCC3)C(=O)c3ccccc3C2=O)cc1 | 0.0422 | 0.111
8 | CC(C)C(=O)N1CCOc2c(cc(-c3csc4ccccc34)cc2OCCc2ccccn2)C1 | > 15 | 4.48
9 | CC(C)(C)c1ccc(-c2cc(-c3cc(Cl)ccc3O)[nH]n2)cc1 | 4.23 | 1.34
10 | CCN(CC)CCNC(=O)c1ccc(Cn2c(SCc3cccc(C)c3)nc3ccncc32)cc1 | 6.75 | > 15
11 | Cc1cccc(/C=C/c2ccc3cccc(O)c3n2)c1O | 4.68 | 1.33
12 | CCOc1ccc(-c2nonc2NC(=O)c2ccccc2C)cc1OCC | > 15 | 1.38
13 | Cc1ccc(O)c(Nc2nc(-c3ccccc3)nc3ccccc23)c1 | 3.83 | 1.31
14 | CCCc1cc(O)nc(-n2nc(C)cc2NC(=O)c2ccccc2F)n1 | > 15 | > 15
15 | CC1=C/C(=N\OC(=O)c2ccc(Br)cc2)C=CC1=O | > 15 | > 15
16 | CCCC(=O)NC(Nc1ccc(S(=O)(=O)Nc2cc(C)on2)cc1)(C(=O)OCC)C(F)(F)F (stereo not drawn) | 1.85 | 5.22
17 | O=C(NCCN1CCOCC1)C(=O)Nc1ccc(F)cc1F | > 15 | > 15
18 | CCc1ccccc1Nc1nc(-c2cccnc2)cs1 | > 15 | > 15
19 | COc1cc(NC(=O)COc2cc(C)c(Cl)c(C)c2)cc(OC)c1 | > 15 | > 15
20 | CCc1ccc(CNCC(O)c2ccccc2)cc1 (stereo not drawn) | 2.17 | 1.37
21 | CCCCN(CC)CCCNC(=O)Cn1ncc2c3ccccc3n(Cc3ccccc3)c2c1=O | > 15 | > 15
22 | CCOC(=O)c1sc(N2C(=O)C(O)=C(C(=O)c3ccc(Cl)cc3)C2c2ccccc2)nc1C (stereo not drawn) | > 15 | > 15
23 | CCOC(=O)c1c(NC(=O)c2ccc(Cl)cc2Cl)sc(C)c1C | > 15 | > 15

Row | Compound | EC50 (Plasmodium falciparum [1]) [µM] | EC50 (Plasmodium falciparum [2]) [µM]
24 | COc1ccccc1CNC(=O)C1c2ccccc2C(=O)N(CC(C)C)C1c1cccs1 (stereo not drawn) | 3.16 | 3.7
25 | CCN(CC)CCn1c(=N)n(CC(O)COc2ccc(Cl)cc2Cl)c2ccccc21 (stereo not drawn) | 0.954 | 2.88
26 | Oc1cccc2ccc(/C=C/c3ccccc3Br)nc12 | > 15 | 9.71
27 | CC(C)/N=C1\C(=O)c2ccccc2C(O)=C1Cl | 1.23 | 0.53
28 | Cc1ccc(S(=O)(=O)Nc2cc(Sc3nc[nH]n3)c(O)c3ccccc23)c(C)c1 | 3.67 | 5.53
29 | CC(C)(CO)CN1CCC(C(=O)Nc2ccc(-c3nc4ccccc4[nH]3)cc2)CC1 | 6.81 | > 15
30 | CC1CCN(CCCNc2cc(NCCO)c([N+](=O)[O-])c3nonc23)CC1 | > 15 | > 15
31 | CCCc1cc(O)nc(-n2nc(C)cc2NC(=O)COc2ccc(OC)cc2)n1 | > 15 | > 15
32 | COc1ccc(C2C(C#N)=C(C(C)(C)C)Nc3ncnn32)cc1 (stereo not drawn) | 8.08 | > 15
33 | COc1ccc(C(=O)NC(Nc2ccc(Cl)cc2)C(Cl)(Cl)Cl)cc1OC (stereo not drawn) | 1.53 | 1.86
34 | Cc1ccc(NC(=O)Cn2c(C)c(C=O)c3ccccc32)cc1Cl | > 15 | 4.63
35 | CCOC(=O)c1c(NC(=O)C(c2ccccc2)c2ccccc2)sc(C(=O)N(CC)CC)c1C | > 15 | > 15
36 | Oc1c(C(Nc2ccccn2)c2ccc(Cl)cc2)ccc2cccnc12 (stereo not drawn) | 2.72 | 4.11
37 | CC(C)OCCNC(=O)CC1C(=O)NCCN1Cc1cccc(C(F)(F)F)c1 (stereo not drawn) | > 15 | > 15
38 | COC(=O)CNC(c1ccccc1)c1cc(Br)ccc1NC(=O)c1ccccc1 (stereo not drawn) | 6.83 | 6.06
39 | COc1ccc(N/C=C2/C(=O)N(c3ccc(OC)cc3)C(=O)c3ccccc32)cc1 | > 15 | > 15
40 | CCOc1cc(Br)c(C2NC(=O)NC(c3ccccc3)=C2C(C)=O)cc1OCC (stereo not drawn) | 1.51 | > 15
41 | Cc1ccn2c(Nc3ccccc3)c(-c3ccccn3)nc2c1 | > 15 | > 15
42 | CNC(=O)C(=O)N1CCC2(CC1)OCCN2S(=O)(=O)c1ccc(C)cc1 | > 15 | > 15
43 | CCCSc1nnc(Cn2c(=O)sc3ccccc32)n1C | > 15 | > 15
44 | CCCCCCCCn1cnc2ccccc21 | > 15 | > 15
45 | CSc1ccc(C2CC(=O)NC3=C2C(=O)CC(c2ccccc2Cl)C3)cc1 (stereo not drawn) | 2.21 | 1.17
46 | COc1ccccc1N1CCN(Cc2cc(COC(C)C)c3cccnc3c2O)CC1 | 5.28 | > 15

Row | Compound | EC50 (Plasmodium falciparum [1]) [µM] | EC50 (Plasmodium falciparum [2]) [µM]
47 | Cc1c(N)cc[n+](CC(=O)c2ccccc2)c1C | > 15 | 5.97
48 | COc1ccc(Cn2c(SCc3ccccc3F)nc3nccnc3c2=O)cc1 | 0.344 | 11.7
49 | CC(C)C(=O)NC(c1ccc(Cl)cc1Cl)c1ccc2cccnc2c1O (stereo not drawn) | 3.65 | 4.6
50 | COc1ccc(Cl)c2sc(N(Cc3cccnc3)C(=O)c3ccc(S(C)(=O)=O)cc3)nc12 | > 15 | > 15
51 | O=C(Nc1nc(-c2ccccn2)cs1)c1ccccc1[N+](=O)[O-] | 4.99 | 6.94
52 | CCC[N+]12CCC(CC1)C(C(=O)c1cccs1)C2 (stereo not drawn) | > 15 | > 15
53 | COc1ccc(OC)c(N2C(=O)c3cccc4c([N+](=O)[O-])ccc(c34)C2=O)c1 | > 15 | > 15
54 | Cc1ccc2c(c1)-c1c(cnn1CC(=O)Nc1cccc(C#N)c1)CO2 | > 15 | 5.38
55 | CCN(CC)CCCC(C)Nc1nc(C)nc2cc(Cl)ccc12 (stereo not drawn) | 6.6 | > 15
56 | O=C(Nc1ccc(Cl)cc1)Nc1cc(Cl)cc(Cl)c1 | 3.21 | 1.63
57 | C=CCN1C(=O)c2[nH]nc(-c3c(C)cc(C)cc3O)c2C1c1ccc(OC)cc1 (stereo not drawn) | 2.07 | 1.45
58 | COCCCn1c(=N)c(C(=O)NCc2cccnc2)cc2c(=O)n3cccc(C)c3nc21 | > 15 | > 15
59 | O=C(Nc1ccc(F)cc1)C1c2ccccc2C(=O)N(C2CCCC2)C1c1cccs1 (stereo not drawn) | 0.808 | 0.975
60 | COc1ccc(N(CC(=O)Nc2cccc(C(F)(F)F)c2)S(C)(=O)=O)cc1 | > 15 | > 15
61 | Cc1ccc(OCC(=O)Nc2cc(C)nn2-c2nc(C)cc(O)n2)cc1 | > 15 | > 15
62 | COc1cccc(C2=C(C(C)=O)Sc3nnc(C)n3N2C(C)=O)c1 | 6.59 | 5.95
63 | CCc1nnc(NC(=O)CCCOc2ccc(Cl)cc2)s1 | > 15 | > 15
64 | CCOC(=O)N1CCN(C(=O)CN(Cc2ccc(Cl)cc2)S(=O)(=O)c2ccc(C)cc2)CC1 | 2.53 | 1.32
65 | CS(=O)(=O)N(Cc1ccccc1)c1ccccc1C(=O)Nc1cc(Cl)ccc1Cl | 6.12 | 4.58
66 | COc1ccc(CN2CCN(Cc3ccccc3)CC2)c(O)c1 | 1.09 | 0.754
67 | COc1ccccc1C(=O)N(Cc1cccnc1)c1nc2c(F)cccc2s1 | > 15 | 9.07
68 | CC(=O)Oc1ccc(Cl)cc1/C=C/c1cc(OC(C)=O)c2ccccc2n1 | > 15 | 1.5
69 | CN1C(=O)C(=Cc2ccc(-c3ccc([N+](=O)[O-])cc3O)o2)C(=O)N(C)C1=O | > 15 | > 15

Row | Compound | EC50 (Plasmodium falciparum [1]) [µM] | EC50 (Plasmodium falciparum [2]) [µM]
70 | OC(CNCc1ccccc1)Cn1c2ccccc2c2ccccc21 (stereo not drawn) | 3.76 | 0.81
71 | CO/C(O)=C1\C(C)=NC2=C(C(=O)CC(c3ccc(OC)c(OC)c3)C2)C1c1cccc(Cl)c1 (stereo not drawn) | 4.1 | 3.46
72 | O=C(CN1C2=NCCN2c2ccccc21)c1ccc(Cl)cc1Cl | 3.28 | 3.65
73 | CCc1c(C)nc(-n2nc(C)cc2NC(=O)c2ccc(C)c(C)c2)nc1O | > 15 | > 15
74 | Cc1ccc2nc(-c3ccc(C)c(NC(=O)C(Cl)(Cl)Cl)c3)oc2c1 | > 15 | 4.17
75 | COc1ccc(CCN2COc3c(cc4c(C)c(C)c(=O)oc4c3C)C2)cc1 | 6.95 | 0.802
76 | COc1ccc(OCC(O)Cn2c(C)[n+](C)c3ccccc32)cc1 (stereo not drawn) | > 15 | > 15
77 | CC(C)c1ccc(/C=C2\Oc3c(ccc(O)c3CN(C)C)C2=O)cc1 | 1.01 | 0.615
78 | CCOC(=O)c1ccc(NC(=O)C2CCC(C(C)(C)C)CC2)cc1 (stereo not drawn) | > 15 | > 15
79 | CCSc1ccc2ccccc2[n+]1CC | 0.416 | 0.259
80 | CC(C)c1ccc(Nc2c(-c3ccccn3)nc3ccccn23)cc1 | > 15 | > 15
81 | Cc1cc(N2CCN(C)CC2)nc2ccc(NC(=O)/C=C/c3ccccc3OC(C)C)cc12 | 3.36 | 5.57
82 | CCC(C)c1ccc(NC(=O)c2ccc(Br)o2)c(O)c1 (stereo not drawn) | 1.93 | 2.57
83 | CCOC(=O)c1cnc2ccc(OCC)cc2c1NCCc1ccccc1 | > 15 | > 15
84 | Cc1cc(Cn2ccnc2)c(C)c([N+](=O)[O-])c1Cn1ccnc1 | > 15 | > 15
85 | CC(=O)c1c(C)n(CCOc2ccc(F)cc2)c2ccccc12 | > 15 | 4.88
86 | CCc1ccc(N(CC)C(=O)c2cc3cc4ccc(OC)cc4nc3o2)cc1 | > 15 | > 15
87 | Cc1c(C=O)c2ccccc2n1CC(=O)Nc1ccc(Br)c(Cl)c1 | 0.702 | 0.891
88 | CC(=O)N1N=C2C3CCN(CC3)C2C1c1ccc(Br)cc1 (stereo not drawn) | > 15 | > 15
89 | COc1ccccc1C(=O)N(Cc1cccnc1)c1nc2c(Cl)cccc2s1 | > 15 | 6.66
